Source: US20010056085A1, “Methods of using vesicant drug formulations” (priority 1996, published 2001)
Read-outs that look alike come from different tables or passages of the source.

Test: Half-life of ADR destruction by UVA light in the presence of test compounds (decrease in absorbance at 480 nm)
Assay type: physicochemical
[1] = UVA light, 100 μM test compound with 0.5 μM riboflavin
[2] = UVA light, 100 μM test compound alone

## c1ccc(-c2cc3ccccc3[nH]2)cc1 [2-Phenyl Indole]
[1]
  Half-Life of ADR Destruction, 100 μM Test Compound and 0.5 μM Riboflavin: 14.3 min

## c1ccc2c(c1)CCCN2 [1,2,3,4-Tetrahydroquinoline]
[1]
  Half-Life of ADR Destruction, 100 μM Test Compound and 0.5 μM Riboflavin: 100.3 min

## O=c1[nH]c(=O)c2nccnc2[nH]1 [Lumazine]
[2]
  Half-Life of ADR Destruction, 100 μM Test Compound: 5.79 min
[1]
  Half-Life of ADR Destruction, 100 μM Test Compound and 0.5 μM Riboflavin: 3.31 min

## CCC(C)c1ccccc1N (stereo not shown) [2-sec-Butyl Aniline]
[1]
  Half-Life of ADR Destruction, 100 μM Test Compound and 0.5 μM Riboflavin: 10.4 min

## Nc1cccc2c1Cc1ccccc1C2 [1-Amino-9,10-dihydroanthracene]
[2]
  Half-Life of ADR Destruction, 100 μM Test Compound: 75.3 min
[1]
  Half-Life of ADR Destruction, 100 μM Test Compound and 0.5 μM Riboflavin: 75.3 min

## Nc1ccc([N+](=O)[O-])cc1[N+](=O)[O-] [2,4-Dinitro Aniline]
  Half-Life of ADR Destruction, 100 μM Test Compound: 75.3 min
  Half-Life of ADR Destruction, 100 μM Test Compound and 0.5 μM Riboflavin: 50.2 min

## O=C(O)CCc1c[nH]c2ccccc12 [Indole-3-propionic acid]
[1]
  Half-Life of ADR Destruction, 100 μM Test Compound and 0.5 μM Riboflavin: 9.5 ± 3.5 min

## OCCc1ccc2ccccc2c1 [2-Naphthaleneethanol]
[2]
  Half-Life of ADR Destruction, 100 μM Test Compound: 50.2 min
[1]
  Half-Life of ADR Destruction, 100 μM Test Compound and 0.5 μM Riboflavin: 33.5 min

## O=c1cc[nH]c(=O)[nH]1 [Uracil]
[1]
  Half-Life of ADR Destruction, 100 μM Test Compound and 0.5 μM Riboflavin: 50.2 min

## O=C(O)CCC(=O)c1ccc2ccccc2c1 [γ-Oxo-2-naphthalenebutyric acid]
[2]
  Half-Life of ADR Destruction, 100 μM Test Compound: 8.36 min
[1]
  Half-Life of ADR Destruction, 100 μM Test Compound and 0.5 μM Riboflavin: 8.18 min

## Nc1cccc(S(=O)(=O)O)c1 [3-Amino Benzenesulfonic acid]
[1]
  Half-Life of ADR Destruction, 100 μM Test Compound and 0.5 μM Riboflavin: 17.7 min

## COc1ccc2cc[nH]c2c1 [6-Methoxy Indole]
[2]
  Half-Life of ADR Destruction, 100 μM Test Compound: 33.5 min
[1]
  Half-Life of ADR Destruction, 100 μM Test Compound and 0.5 μM Riboflavin: 6.27 min

## OCCc1ccsc1 [Thiophene-3-ethanol]
[1]
  Half-Life of ADR Destruction, 100 μM Test Compound and 0.5 μM Riboflavin: 50.2 min

## COc1cc(C=CC=O)ccc1O [3-Methoxy-4-Hydroxy Cinnamaldehyde]
[1]
  Half-Life of ADR Destruction, 100 μM Test Compound and 0.5 μM Riboflavin: 50.2 min

## Cc1cccc2cc[nH]c12 [7-Methyl Indole]
[1]
  Half-Life of ADR Destruction, 100 μM Test Compound and 0.5 μM Riboflavin: 16.7 min

## COc1ccc(CCCO)cc1OC [3-(3,4-Dimethoxyphenyl)-1-Propanol]
[2]
  Half-Life of ADR Destruction, 100 μM Test Compound: 43.0 min
[1]
  Half-Life of ADR Destruction, 100 μM Test Compound and 0.5 μM Riboflavin: 4.78 min

## Cc1cccc(N)c1 [3-Methyl Aniline]
  Half-Life of ADR Destruction, 100 μM Test Compound and 0.5 μM Riboflavin: 33.5 min

## COc1ccc2[nH]cc(CC(=O)O)c2c1 [5-Methoxyindole-3-acetic acid]
[2]
  Half-Life of ADR Destruction, 100 μM Test Compound: 17.7 min
[1]
  Half-Life of ADR Destruction, 100 μM Test Compound and 0.5 μM Riboflavin: 3.67 min

## CCCCc1ccc(N)cc1 [4-Butyl Anilne]
  Half-Life of ADR Destruction, 100 μM Test Compound and 0.5 μM Riboflavin: 7.17 min

## Cc1ccc(C(=O)O)cc1N [3-Amino-4-Methyl Benzoic Acid]
[1]
  Half-Life of ADR Destruction, 100 μM Test Compound and 0.5 μM Riboflavin: 13.7 min

## Cc1c[nH]c2ccccc12 [3-Methyl Indole]
[1]
  Half-Life of ADR Destruction, 100 μM Test Compound and 0.5 μM Riboflavin: 20.1 min

## Coumaryl Glucose
[2]
  Half-Life of ADR Destruction, 100 μM Test Compound: 43.0 min
[1]
  Half-Life of ADR Destruction, 100 μM Test Compound and 0.5 μM Riboflavin: 33.5 min

## COc1ccc2[nH]c(C)cc2c1 [5-Methoxy-2-methyl Indole]
  Half-Life of ADR Destruction, 100 μM Test Compound: 27.4 min
  Half-Life of ADR Destruction, 100 μM Test Compound and 0.5 μM Riboflavin: 7.00 min

## CC(=O)c1ccc2c(c1)OCCO2 [1,4-Benzodioxane-6-yl methyl ketone]
[2]
  Half-Life of ADR Destruction, 100 μM Test Compound: 43.0 min
[1]
  Half-Life of ADR Destruction, 100 μM Test Compound and 0.5 μM Riboflavin: 33.4 min

## Nc1cc(C(=O)O)ccc1O [3-Amino-4-Hydroxy Benzoic Acid]
[1]
  Half-Life of ADR Destruction, 100 μM Test Compound and 0.5 μM Riboflavin: 75.3 min

## O=C(O)c1ccc2[nH]ccc2c1 [Indole-5-carboxylic acid]
[1]
  Half-Life of ADR Destruction, 100 μM Test Compound and 0.5 μM Riboflavin: 12.0 min
